Measurements: the CheMixHub drug solubility set

Experiment: xn = mol fraction of the nth substance listed, in the solute-free solvent

O=C(O)CC(O)C(=O)O (configuration not stated) + CC#N + CCCCOC(C)=O
solubility (g/100 g solution)
Details | 278.15 K | 283.15 K | 288.15 K | 293.15 K | 298.15 K | 303.15 K | 308.15 K | 313.15 K | 318.15 K | 323.15 K
x2 = 0.4143 | 1.23 | 1.39 | 1.63 | 1.79 | 2.06 | 2.36 | 2.73 | 3.15 | 3.71 | 4.37
x2 = 0.5481 | 1.54 | 1.77 | 2.1 | 2.45 | 2.86 | 3.39 | 3.96 | 4.62 | 5.41 | 6.44
x2 = 0.6535 | 2.05 | 2.38 | 2.8 | 3.32 | 3.93 | 4.61 | 5.48 | 6.51 | 7.78 | 9.24
x2 = 0.7389 | 2.71 | 3.15 | 3.56 | 4.05 | 4.88 | 5.66 | 6.77 | 7.85 | 9.29 | 11.2
x2 = 0.8093 | 3.25 | 3.73 | 4.29 | 4.93 | 5.81 | 6.58 | 7.95 | 9.34 | 10.9 | 13.2
x2 = 0.8685 | 3.84 | 4.31 | 4.89 | 5.73 | 6.8 | 8.05 | 9.49 | 11.3 | 13.5 | 15.8
x2 = 0.9188 | 4.19 | 4.92 | 5.74 | 6.72 | 8.05 | 9.62 | 11.4 | 13.7 | 16.4 | 19.4

Cc1[nH]c(=O)c(C#N)cc1-c1ccncc1 + CN(C)C=O + O
solubility (g/100 g solution)
Details | 278.15 K | 283.15 K | 288.15 K | 293.15 K | 298.15 K | 303.15 K | 308.15 K | 313.15 K | 318.15 K | 323.15 K
x2 = 0.02666 | 0.00219 | 0.00258 | 0.00301 | 0.00349 | 0.00402 | 0.00455 | 0.00511 | 0.00573 | 0.0064 | 0.00714
x2 = 0.05806 | 0.00523 | 0.00608 | 0.00705 | 0.00812 | 0.00928 | 0.0104 | 0.0117 | 0.013 | 0.0144 | 0.016
x2 = 0.09556 | 0.00909 | 0.0105 | 0.0121 | 0.014 | 0.0159 | 0.0179 | 0.02 | 0.0222 | 0.0245 | 0.0271
x2 = 0.1412 | 0.0128 | 0.0148 | 0.0171 | 0.0197 | 0.0224 | 0.0253 | 0.0283 | 0.0314 | 0.0347 | 0.0384
x2 = 0.1978 | 0.0159 | 0.0184 | 0.0208 | 0.0242 | 0.028 | 0.0318 | 0.0357 | 0.0397 | 0.0439 | 0.0488
x2 = 0.27 | 0.0186 | 0.0214 | 0.0246 | 0.029 | 0.0328 | 0.0371 | 0.0419 | 0.047 | 0.0524 | 0.0585
x2 = 0.3652 | 0.0209 | 0.0244 | 0.028 | 0.0328 | 0.0376 | 0.043 | 0.0487 | 0.0547 | 0.0613 | 0.068
x2 = 0.4965 | 0.023 | 0.0268 | 0.0315 | 0.0364 | 0.0416 | 0.0476 | 0.0545 | 0.0615 | 0.0685 | 0.0771
x2 = 0.6893 | 0.0242 | 0.0285 | 0.033 | 0.0391 | 0.0448 | 0.0505 | 0.0577 | 0.0654 | 0.0732 | 0.0835

Nc1[nH]c(=O)ncc1F + CS(C)=O + CC(C)O
solubility (g/100 g solution)
Details | 283.15 K | 288.15 K | 293.15 K | 298.15 K | 303.15 K | 308.15 K | 313.15 K | 318.15 K | 323.15 K
x2 = 0.0788 | 0.0921 | 0.111 | 0.133 | 0.162 | 0.192 | 0.228 | 0.268 | 0.315 | 0.37
x2 = 0.1614 | 0.168 | 0.202 | 0.237 | 0.282 | 0.331 | 0.386 | 0.451 | 0.526 | 0.615
x2 = 0.2481 | 0.248 | 0.291 | 0.341 | 0.401 | 0.466 | 0.543 | 0.625 | 0.717 | 0.826
x2 = 0.3392 | 0.336 | 0.388 | 0.451 | 0.521 | 0.606 | 0.693 | 0.798 | 0.914 | 1.05
x2 = 0.435 | 0.424 | 0.487 | 0.569 | 0.648 | 0.743 | 0.852 | 0.967 | 1.1 | 1.25
x2 = 0.5359 | 0.503 | 0.57 | 0.645 | 0.734 | 0.837 | 0.957 | 1.09 | 1.24 | 1.41
x2 = 0.6424 | 0.591 | 0.662 | 0.745 | 0.833 | 0.948 | 1.08 | 1.21 | 1.38 | 1.55
x2 = 0.7549 | 0.704 | 0.789 | 0.876 | 0.987 | 1.11 | 1.25 | 1.41 | 1.59 | 1.77
x2 = 0.8739 | 0.823 | 0.901 | 1 | 1.11 | 1.24 | 1.4 | 1.57 | 1.75 | 1.95

CC(C)=CCCC(C)C1CCC2(C)C3=C(CCC12C)C1(C)CCC(O)C(C)(C)C1CC3 (configuration not stated) + CCO + O
solubility (g/100 g solution)
Details | 278.15 K | 288.15 K | 298.15 K | 308.15 K | 318.15 K
x2 = 0.01604 | 3.88e-05 | 6.47e-05 | 0.000106 | 0.000176 | 0.000263
x2 = 0.1154 | 0.000122 | 0.000181 | 0.000283 | 0.000357 | 0.000444
x2 = 0.3147 | 0.000276 | 0.000461 | 0.000699 | 0.00134 | 0.00191
x2 = 0.7415 | 0.245 | 0.366 | 0.512 | 0.754 | 0.839

CCC(C)n1ncn(-c2ccc(N3CCN(c4ccc(OCC5COC(Cn6cncn6)(c6ccc(Cl)cc6Cl)O5)cc4)CC3)cc2)c1=O (configuration not stated) + ClC(Cl)Cl + CCCO
solubility (g/100 g solution)
Details | x2 = 0.05356 | x2 = 0.113 | x2 = 0.1792 | x2 = 0.2535 | x2 = 0.3375 | x2 = 0.4331 | x2 = 0.5431 | x2 = 0.6708 | x2 = 0.8209
288.15 K | 0.0558 | 0.128 | 0.28 | 0.831 | 3.16 | 6.95 | 12.2 | 17.6 | 24.2
293.15 K | 0.0691 | 0.153 | 0.347 | 1.04 | 3.51 | 7.71 | 13.2 | 18.8 | 25.1
298.15 K | 0.0837 | 0.183 | 0.426 | 1.28 | 3.9 | 8.57 | 14.2 | 19.9 | 26.1
303.15 K | 0.102 | 0.216 | 0.523 | 1.57 | 4.29 | 9.48 | 15.3 | 21.1 | 26.9
308.15 K | 0.122 | 0.255 | 0.63 | 1.89 | 4.73 | 10.4 | 16.3 | 22.3 | 27.8

c1ccc2[nH]c(-c3cscn3)nc2c1 + CC(C)O + O
solubility (g/100 g solution)
Details | 283.15 K | 288.15 K | 293.15 K | 298.15 K | 303.15 K | 308.15 K | 313.15 K | 318.15 K | 323.15 K
x2 = 0.03225 | 0.00182 | 0.0023 | 0.00284 | 0.00356 | 0.0044 | 0.00539 | 0.00665 | 0.00808 | 0.00978
x2 = 0.06974 | 0.00792 | 0.00964 | 0.0123 | 0.015 | 0.0183 | 0.022 | 0.0263 | 0.0311 | 0.0368
x2 = 0.1139 | 0.0206 | 0.0251 | 0.0303 | 0.0374 | 0.0453 | 0.0539 | 0.064 | 0.0751 | 0.0876
x2 = 0.1666 | 0.0372 | 0.0456 | 0.0555 | 0.0669 | 0.0796 | 0.0936 | 0.113 | 0.131 | 0.156
x2 = 0.2307 | 0.0599 | 0.0732 | 0.0858 | 0.101 | 0.121 | 0.143 | 0.169 | 0.197 | 0.23
x2 = 0.3103 | 0.0907 | 0.109 | 0.127 | 0.148 | 0.178 | 0.204 | 0.234 | 0.27 | 0.312
x2 = 0.4117 | 0.131 | 0.154 | 0.181 | 0.213 | 0.249 | 0.287 | 0.329 | 0.379 | 0.433
x2 = 0.5454 | 0.16 | 0.192 | 0.225 | 0.262 | 0.301 | 0.347 | 0.399 | 0.459 | 0.529
x2 = 0.7297 | 0.197 | 0.23 | 0.268 | 0.309 | 0.36 | 0.413 | 0.47 | 0.534 | 0.6

Cl.N=C(N)N + CN(C)C=O + CCCO
solubility (g/100 g solution)
Details | 278.15 K | 283.15 K | 288.15 K | 293.15 K | 298.15 K | 303.15 K | 308.15 K | 313.15 K | 318.15 K | 323.15 K
x2 = 0.08378 | 10.4 | 11.5 | 12.6 | 13.4 | 14.4 | 15.6 | 16.5 | 17.8 | 18.9 | 20.5
x2 = 0.2607 | 20.4 | 21.6 | 22.3 | 23 | 23.9 | 24.8 | 25.6 | 26.3 | 27.2 | 28.1
x2 = 0.4515 | 27.6 | 28.9 | 29.7 | 30.7 | 31.8 | 32.8 | 33.4 | 34.5 | 35.3 | 36.7
x2 = 0.657 | 35.6 | 37.3 | 38.3 | 39.1 | 40.5 | 41.6 | 42.5 | 43.5 | 44.9 | 46.1
x2 = 0.8809 | 43.5 | 45.6 | 46.6 | 47.1 | 48.8 | 49.9 | 50.7 | 52.4 | 53.7 | 54

Nc1ccc(Oc2ccc(N)cc2)cc1 + COCCO + CCO
solubility (g/100 g solution)
Details | 293.15 K | 298.15 K | 303.15 K | 308.15 K | 313.15 K | 318.15 K | 323.15 K | 328.15 K | 333.15 K
x2 = 0.06303 | 0.499 | 0.623 | 0.747 | 0.912 | 1.12 | 1.28 | 1.53 | 1.85 | 2.05
x2 = 0.1315 | 0.717 | 0.756 | 1.15 | 1.31 | 1.47 | 1.66 | 2.05 | 2.13 | 2.67
x2 = 0.206 | 1.06 | 1.1 | 1.51 | 1.67 | 1.81 | 2.26 | 2.59 | 2.89 | 3.33
x2 = 0.2875 | 1.41 | 1.52 | 2.06 | 2.16 | 2.37 | 2.9 | 3.32 | 3.5 | 4.01
x2 = 0.3771 | 1.82 | 2.06 | 2.54 | 2.67 | 3.1 | 3.47 | 4.03 | 4.26 | 4.95
x2 = 0.4759 | 2.25 | 2.54 | 3.08 | 3.31 | 3.71 | 4.25 | 4.81 | 4.96 | 5.85
x2 = 0.5855 | 2.84 | 3.2 | 3.71 | 4.1 | 4.42 | 5.1 | 5.68 | 6.03 | 6.84
x2 = 0.7077 | 3.66 | 3.97 | 4.45 | 4.86 | 5.25 | 6.05 | 6.65 | 7.22 | 7.97
x2 = 0.8449 | 4.52 | 4.75 | 5.33 | 5.75 | 6.21 | 6.99 | 7.7 | 8.23 | 9.05

CC(C)=CCCC(C)C1CCC2(C)C3=C(CCC12C)C1(C)CCC(O)C(C)(C)C1CC3 (configuration not stated) + CO + O
solubility (g/100 g solution)
Details | 296.67 K | 306.81 K | 316.94 K | 328.97 K | 338.78 K
x2 = 0.0229 | 8.14e-06 | 1.37e-05 | 3.09e-05 | 6.98e-05 | 0.000153
x2 = 0.09675 | 8.15e-06 | 1.39e-05 | 3.32e-05 | 8.15e-05 | 0.000161
x2 = 0.3065 | 7.26e-06 | 1.51e-05 | 3.94e-05 | 8.99e-05 | 0.000193
x2 = 0.5109 | 0.00011 | 0.000197 | 0.000378 | 0.000796 | 0.00195
x2 = 0.8048 | 0.0189 | 0.0422 | 0.0785 | 0.161 | –
